Measured values from patent US20090239846A1, “Novel Compounds” (Glaxo Group Limited, priority 2005, published 2009).
Entries after “also recorded” stand apart in the source; their conditions may differ. Structures can show the parent of a compound that is named as a salt.

Each molecule was assayed on influx of neutrophils to the lung in LPS-challenged rats (assay: Rat LPS neutrophilia model). Conditions: LPS aerosol, lavage 4 hours later, in at least one of the range of conditions tested, significance p<0.05.
Assay type: in vivo
Description: The effect of compounds on the influx of neutrophils to the lung in LPS-challenged rats is evaluated as follows. The test compound is suspended in one of the following solutions: 0.5% tween 80/PBS, 0.5% tween 80/saline, 10% EtOH/saline (with pH adjusted to 2.0, or 8.0 with HCl, or unadjusted), Saline (pH 2.0, 6.5 or 8.0, 0.5% Tragacanth, 1% DMSO/20% Encapsin/Saline, or acidified 5% Tragacanth. The suspension process may be aided by the use of a glass homogenizer. For intratracheal administration, the animals are anesthetized with inhaled isoflurane and placed in a supine position, the trachea is intubated with a steel gavage needle (1.5 inch, 22 gauge, small ball) or a Penn-Century Microsprayer Aerosolizer (model IA-LB) and 200 ul of dosing solution is delivered. The animals are visually monitored during the recovery process, which typically occurs within two minutes.
Rats treated with compound or vehicle (15 min-24 hours pretreatment) are exposed to an LPS aerosol (100 ug/ml) for 15 min. Four hours later the rats are euthanized with pentobarbital (100 mg/kg, i.p.) and the airways are lavaged with 5 washes of 5 ml of phosphate buffered saline. The harvested cells are stained (Diffquick) and counted to determine total and differential cell data. In a typical study, macrophages represent 40-70% of the total cells, and polymorphonuclear cells 30-60% of the total cells. Inhibition of neutrophil levels relative to no compound controls is calculated based on the differential counts.
The assay has varying conditions, such as concentration, pretreat time, form of the compound (crystalline, amorphous, salts, micronised), and a wet or dry application of the compound.
The data is obtained as % inhibition using a particular concentration and pretreat time.

Question: For `Cc1ccc(C(=O)Nc2nccs2)cc1-c1nc(NCCCN(C)C)nc2c1CNC(=O)N2c1c(F)cccc1F` [Example 119, 3-(8-(2,6-difluorophenyl)-2-{[3-(dimethylamino)propyl]amino}-7-oxo-5,6,7,8-tetrahydropyrimido[4,5-d]pyrimidin-4-yl)-4-methyl-N-1,3-thiazol-2-ylbenzamide], which inhibition of neutrophilia is on record?
Answer: Its inhibition of neutrophilia is “statistically significant inhibition of neutrophilia”.

Question: For `CSc1ccc(NC(=O)c2ccc(C)c(-c3nc(NCCN(C)C)nc4c3CNC(=O)N4c3c(F)cccc3F)c2)cc1` [Example 127, 3-(8-(2,6-difluorophenyl)-2-{[2-(dimethylamino)ethyl]amino}-7-oxo-5,6,7,8-tetrahydropyrimido[4,5-d]pyrimidin-4-yl)-4-methyl-N-[4-(methylthio)-phenyl]benzamide], which inhibition of neutrophilia is on record?
Answer: The inhibition of neutrophilia was “statistically significant inhibition of neutrophilia”.

Question: Which inhibition of neutrophilia does the source give for `Cc1ccc(C(=O)Nc2nccs2)cc1-c1nc(N(C)CCCN(C)C)nc2c1CNC(=O)N2c1c(F)cccc1F` [Example 124, 3-{8-(2,6-difluorophenyl)-2-[[3-(dimethylamino)propyl](methyl)amino]-7-oxo-5,6,7,8-tetrahydropyrimido[4,5-d]pyrimidin-4-yl}-4-methyl-N-1,3-thiazol-2-ylbenzamide] here?
Answer: The inhibition of neutrophilia was “statistically nonsignificant inhibition of neutrophilia”.

Question: `Cc1ccc(C(=O)NC(C)C)cc1-c1nc(N2CCC(N3CCCC3)CC2)nc2c1CNC(=O)N2c1c(F)cccc1F` [Example 60, 3-{8-(2,6-difluorophenyl)-7-oxo-2-[4-(1-pyrrolidinyl)-1-piperidinyl]-5,6,7,8-tetrahydropyrimido[4,5-d]pyrimidin-4-yl}-4-methyl-N-(1-methylethyl)benzamide] was tested. Which inhibition of neutrophilia did it give?
Answer: The inhibition of neutrophilia was “statistically nonsignificant inhibition of neutrophilia; also recorded: inactive”.

Question: For `CN(C)CCNc1nc(-c2cccc(C(=O)Nc3nccs3)c2)c2c(n1)N(c1c(F)cccc1F)C(=O)NC2` [Example 92, 3-(8-(2,6-difluorophenyl)-2-{[2-(dimethylamino)ethyl]amino}-7-oxo-5,6,7,8-tetrahydropyrimido[4,5-d]pyrimidin-4-yl)-N-1,3-thiazol-2-ylbenzamide], which inhibition of neutrophilia is on record?
Answer: Its inhibition of neutrophilia is “statistically significant inhibition of neutrophilia”.

Question: `Cc1c(F)cc(C(=O)Nc2ccccc2)cc1-c1nc(NCCN(C)C)nc2c1CNC(=O)N2c1c(F)cccc1F` [Example 112, 3-(8-(2,6-difluorophenyl)-2-{[2-(dimethylamino)ethyl]amino}-7-oxo-5,6,7,8-tetrahydropyrimido[4,5-d]pyrimidin-4-yl)-5-fluoro-4-methyl-N-phenylbenzamide] was tested. Which inhibition of neutrophilia did it give?
Answer: The inhibition of neutrophilia was “statistically significant inhibition of neutrophilia”.

Question: For `CN(C)CCNc1nc(-c2cccc(C(=O)Nc3ccc(F)cc3)c2)c2c(n1)N(c1c(F)cccc1F)C(=O)NC2` [Example 93], which inhibition of neutrophilia is on record?
Answer: The inhibition of neutrophilia was “statistically nonsignificant inhibition of neutrophilia”.

Question: For `Cc1ccc(C(=O)NC(C)C)cc1-c1nc(NC2CCN(Cc3ccccc3)CC2)nc2c1CNC(=O)N2c1c(F)cccc1F` [Example 200, 3-(8-(2,6-difluorophenyl)-7-oxo-2-{[1-(phenylmethyl)-4-piperidinyl]amino}-5,6,718-tetrahydropyrimido[4,5-d]pyrimidin-4-yl)-4-methyl-N-(1-methylethyl)benzamide], which inhibition of neutrophilia is on record?
Answer: Its inhibition of neutrophilia is “statistically significant inhibition of neutrophilia”.

Question: Which inhibition of neutrophilia does the source give for `CCN(CC)CCCNc1nc(-c2cc(C(=O)Nc3nccs3)ccc2C)c2c(n1)N(c1c(F)cccc1F)C(=O)NC2` [Example 120, 3-[2-{[3-(diethylamino)propyl]amino}-8-(2,6-difluorophenyl)-7-oxo-5,6,7,8-tetrahydropyrimido[4,5-d]pyrimidin-4-yl]-4-methyl-N-1,3-thiazol-2-ylbenzamide] here?
Answer: Its inhibition of neutrophilia is “statistically significant inhibition of neutrophilia”.

Question: How did the inhibition of neutrophilia turn out when `Cc1ccc(C(=O)NC(C)C)cc1-c1nc(NCCCN(C)C)nc2c1CNC(=O)N2c1c(F)cccc1F` [Example 40, 3-(8-(2,6-difluorophenyl)-2-{[3-(dimethylamino)propyl]amino}-7-oxo-5,6,7,8-tetrahydropyrimido[4,5-d]pyrimidin-4-yl)-4-methyl-N-(1-methylethyl)benzamide] was run?
Answer: The inhibition of neutrophilia was “statistically significant inhibition of neutrophilia”.

Question: With `Cc1ccc(C(=O)NC(C)C)cc1-c1nc(N2CCC(N3CCCCC3)CC2)nc2c1CNC(=O)N2c1c(F)cccc1F` [Example 57, 3-[2-(1,4′-bipiperidin-1′-yl)-8-(2,6-difluorophenyl)-7-oxo-5,6,7,8-tetrahydropyrimido[4,5-d]pyrimidin-4-yl]-4-methyl-N-(1-methylethyl)benzamide] as the molecule, how does the inhibition of neutrophilia read?
Answer: Its inhibition of neutrophilia is “statistically nonsignificant inhibition of neutrophilia”.

Question: `Cc1ccc(C(=O)Nc2nccs2)cc1-c1nc(NC[C@H](C)O)nc2c1CNC(=O)N2c1c(F)cccc1F` [Example 134, 3-(8-(2,6-difluorophenyl)-2-{[(2S)-2-hydroxypropyl]amino}-7-oxo-5,6,7,8-tetrahydropyrimido[4,5-d]pyrimidin-4-yl)-4-methyl-N-1,3-thiazol-2-ylbenzamide] was tested. Which inhibition of neutrophilia did it give?
Answer: Its inhibition of neutrophilia is “statistically nonsignificant inhibition of neutrophilia”.

Question: For `COc1ccc(NC(=O)c2ccc(C)c(-c3nc(NCCN(C)C)nc4c3CNC(=O)N4c3c(F)cccc3F)c2)cn1` [Example 140, 3-(8-(2,6-difluorophenyl)-2-{[2-(dimethylamino)ethyl]amino}-7-oxo-5,6,7,8-tetrahydropyrimido[4,5-d]pyrimidin-4-yl)-4-methyl-N-[6-(methyloxy)-3-pyridinyl]benzamide], which inhibition of neutrophilia is on record?
Answer: The inhibition of neutrophilia was “statistically significant inhibition of neutrophilia”.

Question: How did the inhibition of neutrophilia turn out when `CN(C)CCNc1nc(-c2cccc(C(=O)Nc3ccccc3)c2)c2c(n1)N(c1c(F)cccc1F)C(=O)NC2` [Example 91] was run?
Answer: Its inhibition of neutrophilia is “statistically significant inhibition of neutrophilia”.

Question: How did the inhibition of neutrophilia turn out when `Cc1ccc(C(=O)NC(C)C)cc1-c1nc(N2CCC(N3CCC(C)CC3)CC2)nc2c1CNC(=O)N2c1c(F)cccc1F` [Example 70, 3-[8-(2,6-difluorophenyl)-2-(4-methyl-1,4′-bipiperidin-1′-yl)-7-oxo-5,6,7,8-tetrahydropyrimido[4,5-d]pyrimidin-4-yl]-4-methyl-N-(1-methylethyl)benzamide] was run?
Answer: Its inhibition of neutrophilia is “statistically significant inhibition of neutrophilia”.

Question: Which inhibition of neutrophilia does the source give for `CCCNC(=O)c1ccc(C)c(-c2nc(N(C)CCCN(C)C)nc3c2CNC(=O)N3c2c(F)cccc2F)c1` [Example 53, 3-{8-(2,6-difluorophenyl)-2-[[3-(dimethylamino)propyl](methyl)amino]-7-oxo-5,6,7,8-tetrahydropyrimido[4,5-d]pyrimidin-4-yl}-4-methyl-N-propylbenzamide] here?
Answer: The inhibition of neutrophilia was “statistically nonsignificant inhibition of neutrophilia”.

Question: `Cc1ccc(C(=O)Nc2ccc(F)cc2)cc1-c1nc(NCCCN(C)C)nc2c1CNC(=O)N2c1c(F)cccc1F` [Example 42, 3-(8-(2,6-difluorophenyl)-2-{[3-(dimethylamino)propyl]amino}-7-oxo-5,6,7,8-tetrahydropyrimido[4,5-d]pyrimidin-4-yl)-N-(4-fluorophenyl)-4-methylbenzamide] was tested. Which inhibition of neutrophilia did it give?
Answer: Its inhibition of neutrophilia is “statistically significant inhibition of neutrophilia”.

Question: With `Cc1ccc(C(=O)Nc2ccc(F)cc2)cc1-c1nc(NC2CCN(C)CC2)nc2c1CNC(=O)N2c1c(F)cccc1F` [Example 39, 3-{8-(2,6-difluorophenyl)-2-[(1-methyl-4-piperidinyl)amino]-7-oxo-5,6,7,8-tetrahydropyrimido[4,5-d]pyrimidin-4-yl}-N-(4-fluorophenyl)-4-methylbenzamide] as the molecule, how does the inhibition of neutrophilia read?
Answer: The inhibition of neutrophilia was “statistically nonsignificant inhibition of neutrophilia”.

Question: Which inhibition of neutrophilia does the source give for `CCc1ccc(C(=O)Nc2nccs2)cc1-c1nc(NCCN(C)C)nc2c1CNC(=O)N2c1c(F)cccc1F` [Example 144, 3-(8-(2,6-difluorophenyl)-2-{[2-(dimethylamino)ethyl]amino}-7-oxo-5,6,7,8-tetrahydropyrimido[4,5-d]pyrimidin-4-yl)-4-ethyl-N-1,3-thiazol-2-ylbenzamide trifluoroacetate] here?
Answer: Its inhibition of neutrophilia is “statistically significant inhibition of neutrophilia”.

Question: With `Cc1ccc(C(=O)NC(C)C)cc1-c1nc(NCCN(C)C)nc2c1CNC(=O)N2c1c(F)cccc1F` [Example 37, 3-(8-(2,6-difluorophenyl)-2-{[2-(dimethylamino)ethyl]amino}-7-oxo-5,6,7,8-tetrahydropyrimido[4,5-d]pyrimidin-4-yl)-4-methyl-N-(1-methylethyl)benzamide] as the molecule, how does the inhibition of neutrophilia read?
Answer: Its inhibition of neutrophilia is “statistically nonsignificant inhibition of neutrophilia”.

Question: How did the inhibition of neutrophilia turn out when `Cc1ccc(C(=O)NC(C)C)cc1-c1nc(N2CCCN(C)CC2)nc2c1CNC(=O)N2c1c(F)cccc1F` [Example 179, 3-[8-(2,6-difluorophenyl)-2-(4-methylhexahydro-1H-1,4-diazepin-1-yl)-7-oxo-5,6,7,8-tetrahydropyrimido[4,5-d]pyrimidin-4-yl]-4-methyl-N-(1-methylethyl)benzamide trifluoroacetate] was run?
Answer: Its inhibition of neutrophilia is “statistically nonsignificant inhibition of neutrophilia”.
